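All cell lines were grown in 96-well plates and treated with compound for 48 hours. Here, GI50 denotes the concentration required for 50% inhibition of growth. TGI: total growth inhibition.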
Columns and labels:
Assay in all cases: DTP human tumour cell line panel, 48 h
K-562 leukemia = test system: K-562 leukemia
COLO 205 colon = test system: COLO 205 colon
SNB-19 CNS = test system: SNB-19 CNS
MALME-3M melanoma = test system: MALME-3M melanoma
NCI-H460 lung = test system: NCI-H460 lung
RPMI-8226 leukemia = test system: RPMI-8226 leukemia
MOLT-4 leukemia = test system: MOLT-4 leukemia
NCI-H226 lung = test system: NCI-H226 lung
UACC-257 melanoma = test system: UACC-257 melanoma
OVCAR-4 ovarian = test system: OVCAR-4 ovarian

Structure (SMILES)	TGI (K-562 leukemia)	TGI (COLO 205 colon)	TGI (SNB-19 CNS)	TGI (MALME-3M melanoma)	TGI (NCI-H460 lung)	TGI (RPMI-8226 leukemia)	TGI (MOLT-4 leukemia)	TGI (NCI-H226 lung)	GI50 (COLO 205 colon)	GI50 (UACC-257 melanoma)	TGI (UACC-257 melanoma)	GI50 (OVCAR-4 ovarian)	TGI (OVCAR-4 ovarian)	GI50 (SNB-19 CNS)	GI50 (MALME-3M melanoma)	GI50 (NCI-H460 lung)	GI50 (RPMI-8226 leukemia)	GI50 (MOLT-4 leukemia)	GI50 (NCI-H226 lung)	GI50 (K-562 leukemia)
CCOC(=O)Cn1c(=O)n(C)c(=O)c2c1ncn2Cc1ccccc1	> 100 µM	> 100 µM	> 100 µM	> 100 µM	> 100 µM	> 100 µM	> 100 µM	> 100 µM												
O=C(N/N=C/c1ccc([N+](=O)[O-])o1)c1ccc(O)cc1		16.1 µM	> 100 µM	2.56 µM	> 100 µM	48.3 µM	> 100 µM	> 100 µM	4.63 µM	4.97 µM	18.8 µM	1.72 µM	4.51 µM	5.39 µM	1.11 µM	3.37 µM	3.35 µM	5.69 µM	12.7 µM	
OCCNCCOc1ccc(/C(=C(/Cl)c2ccccc2)c2ccccc2)cc1	11 µM	22.8 µM	28.4 µM		18.2 µM	17.3 µM	17.2 µM	45 µM			12 µM		31.5 µM							
Clc1cc(Cl)cc(Nc2ccc3cc(OCCCN4CCOCC4)ccc3n2)c1	4.42 µM	3.67 µM				7.08 µM	5.81 µM	> 100 µM	1.78 µM	1.96 µM	4.34 µM	3.44 µM	> 100 µM				2.2 µM	1.77 µM	3.76 µM	1.58 µM
Cc1ccc(S(=O)(=O)NC(=O)NC2=NC(C)(C)N(c3ccc(Cl)c(Cl)c3)C(N)=N2)cc1	> 100 µM	> 100 µM	> 100 µM	> 100 µM	> 100 µM		> 100 µM	> 100 µM			> 100 µM		> 100 µM							
O=C1C(=O)N(c2cc(Cl)ccc2Cl)C(=O)C(=O)C1c1nc2ccccc2o1	> 100 µM	> 100 µM	> 100 µM	> 100 µM	> 100 µM	> 100 µM	> 100 µM				> 100 µM		> 100 µM							
O=C1CSC(c2ccc(-c3nc4ccccc4s3)cc2)=N1	50.4 µM	> 100 µM	> 100 µM		74.5 µM	52.6 µM			> 100 µM	30.8 µM	75.7 µM	41.1 µM	> 100 µM	72.7 µM		30.2 µM	23.2 µM			16.7 µM
CCOC(=O)/C(=C/c1cccc(C#N)c1)N(CC)CC	> 100 µM	> 100 µM		> 100 µM	> 100 µM	> 100 µM	> 100 µM	> 100 µM			> 100 µM		> 100 µM							
O=C1C(Cl)=C(Nc2ccccc2O)C(=O)N1Cc1ccccc1	33.6 µM	46.8 µM	> 100 µM	40.4 µM	42.5 µM	27.2 µM	> 100 µM	48.8 µM	24.2 µM			43.1 µM	> 100 µM	35.8 µM	22.8 µM	21 µM	12.5 µM	19.6 µM	20.1 µM	15.5 µM
CCN(CC)c1cc2oc3cc(N)cc(=N)c-3nc2cc1C		3.95 µM	32 µM	6.08 µM	17 µM	23.7 µM		42.8 µM	1.9 µM	3.11 µM	34 µM			5.46 µM	2.16 µM	3.41 µM	1.03 µM		3.39 µM	
CCCCCc1ccc(S(=O)(=O)Nc2cc(-c3csc(NC(C)=O)n3)ccc2N2CCN(C)CC2)cc1	3.4 µM	11.8 µM	10.4 µM	9.11 µM	9.9 µM		8.33 µM	10.7 µM	5.16 µM	4.48 µM	11.4 µM	5.44 µM	10.3 µM	5.49 µM	4.05 µM	4.77 µM		2.43 µM	4.94 µM	1.03 µM
O=S1(=O)OCCOS(=O)(=O)C1Cl	> 100 µM	> 100 µM	> 100 µM	> 100 µM		> 100 µM	> 100 µM	> 100 µM			> 100 µM		> 100 µM							
O=c1c2ccccc2nc(-c2ccccc2)n1NC(=S)Nc1ccccc1	> 100 µM	> 100 µM		> 100 µM	> 100 µM	> 100 µM	> 100 µM	> 100 µM			> 100 µM		> 100 µM							
Nc1ccc2[nH]cc(CCC(=O)O)c2c1		> 100 µM	> 100 µM	> 100 µM		> 100 µM	> 100 µM	> 100 µM			> 100 µM		> 100 µM							
COc1ccc2c(c1)C(C)Cc1c(ncnc1-n1cnc3cc(C)ccc31)N2C (configuration not stated)	15.2 µM	0.388 µM	20.4 µM		10.3 µM	3.88 µM	12.9 µM	16.3 µM	0.176 µM	0.158 µM	20.8 µM	0.347 µM	33.7 µM	0.216 µM		0.128 µM	0.0407 µM	0.247 µM	0.157 µM	0.0386 µM
CN(C)CCSc1nccc(-c2cc3ccccc3s2)n1		35.1 µM		36 µM	28 µM		66.1 µM	38 µM					82.2 µM							
C=CCN1CC2CON(C(=O)C(OC)(c3ccccc3)C(F)(F)F)C2C1C(C)C (configuration not stated)				54.5 µg/mL		41.7 µg/mL	46.6 µg/mL		26 µg/mL			67.1 µg/mL		54.5 µg/mL	20 µg/mL	28.9 µg/mL	9.82 µg/mL	15 µg/mL		
CC1CN1c1c(C(=O)/C=C/c2ccc(Cl)cc2)c(-c2ccccc2)nn(C)c1=O (configuration not stated)	8.8 µM	3.67 µM	> 10 µM	> 10 µM	4.12 µM		8.02 µM	> 10 µM			> 10 µM		7.52 µM							
C[C@H]1CCC/C=C/[C@@H]2C[C@H](O)C[C@H]2[C@H](O)[C@@H](SCC(O)CO)CC(=O)O1 (some centres not stated)	> 100 µM	34.4 µM	70.9 µM	> 100 µM	> 100 µM		84.3 µM	44 µM	17.5 µM	6.74 µM	> 100 µM	4.17 µM	> 100 µM	27.1 µM	> 100 µM	26.3 µM		27.1 µM	18.7 µM	40.3 µM

Reference: PubChem BioAssay (NCI)
